Laboratory results from patent US20080269510A1, “New alpha-glucosidase inhibitors and antibacterial compounds from Myrtus communis L” (priority 2005, published 2008).

Legend:
[1] = system: Salmonella typhi; experiment: Antibacterial screening, agar well diffusion; format: cell-based; details: for Inhibition zone, ST (Salmonella typhi): 100 μL of 3 mg/3 ml DMSO sample per 6-mm well, 37° C., 24 h
[2] = system: Bacillus subtilis; experiment: Antibacterial screening, agar well diffusion; format: cell-based; details: 100 μL of 3 mg/3 ml DMSO sample per 6-mm well, 37° C., 24 h
Description: (§1) As a negative control, DMSO was used.

[3] = system: Staphylococcus aureus; experiment: Antibacterial screening, agar well diffusion; format: cell-based; details: for Inhibition zone, SA (Staphylococcus aureus): 100 μL of 3 mg/3 ml DMSO sample per 6-mm well, 37° C., 24 h
Description: as §1

[4] = system: Escherichia coli; experiment: Antibacterial screening, agar well diffusion; format: cell-based; details: 100 μL of 3 mg/3 ml DMSO sample per 6-mm well, 37° C., 24 h
Description: as §1

[5] = system: Pseudomonas aeruginosa; experiment: Antibacterial screening, agar well diffusion; format: cell-based; details: for Inhibition zone, PA (Pseudomonas aeruginosa): 100 μL of 3 mg/3 ml DMSO sample per 6-mm well, 37° C., 24 h
Description: as §1

[6] = system: Shigella flexneri; experiment: Antibacterial screening, agar well diffusion; details: 100 μL of 3 mg/3 ml DMSO sample per 6-mm well, 37° C., 24 h
[7] = biological target: α-Glucosidase (E.C.3.2.1.20); experiment: α-Glucosidase enzyme inhibition assay (PNP-G substrate, spectrophotometric); format: biochemical; details: for IC50: pH 6.9, 37° C., 0.7 mM PNP-G, 500 m units/mL enzyme, read-out: α-glucosidase inhibitory activity IC50; for α-glucosidase inhibition (in words): compared with standards acarbose and deoxynojirimycin
Procedure: α-Glucosidase (E.C.3.2.1.20) enzyme inhibition assay has been performed according to the slightly modified method of Matsui et al., (Matsui T., Yoshimoto C., Osajima K., Oki T., and Osajima Y., Biosci. Biotech. Biochem., 1996, 60, 2019-2022). α-Glucosidase (E.C.3.2.1.20) from Saccharomyces species, purchased commercially (Wako 076-02841; Wako Pure Chemical Industries Ltd., 1-2 Doshomachi 3-Chome, Chuo-ku, Osaka 540-8605, Japan). The enzyme inhibition was measured spectrophotometrically at pH 6.9 and at 37° C. using 0.7 mM p-nitrophenyl α-D glucopyranoside (PNP-G) as a substrate and 500 m units/mL enzyme, in 50 mM sodium phosphate buffer containing 100 mM NaCl. […] The increment in absorption at 400 nm, due to the hydrolysis of PNP-G by α-glucosidase, was monitored continuously on microplate spectrophotometer (Spectra Max Molecular Devices, USA).

[8] = autoxidation and FeCl3- and EDTA-mediated oxidation of linoleic acid; cited from earlier work
[9] = system: multidrug-resistant (MDR) clinically relevant bacteria; details: cited from earlier work

Molecule	Inhibition zone, ST (Salmonella typhi) [1] [mm]	Inhibition zone, BS (Bacillus subtilis) [2] [mm]	antibacterial activity against Staphylococcus aureus (in words) [3]	Inhibition zone, EC (Escherichia coli) [4] [mm]	Inhibition zone, PA (Pseudomonas aeruginosa) [5] [mm]	Inhibition zone, SF (Shigella flexneri) [6] [mm]	IC50 [7] [µM]	α-glucosidase inhibition (in words) [7]	activity against Salmonella typhi (in words) [1]	Inhibition zone, SA (Staphylococcus aureus) [3] [mm]	activity against Pseudomonas aeruginosa (in words) [5]	antioxidant properties (in words) [8]	antibacterial activity against MDR bacteria (in words) [9]
CC(C)C(=O)c1c(O)c2c(c3c1OC1=C(C(=O)C(C)(C)C(=O)C1(C)C)[C@@H]3C(C)C)OC1=C(C(=O)C(C)(C)C(=O)C1(C)C)[C@@H]2C(C)C [Compound 2, Myrtucommulone-E]	17	15	significant antibacterial activity	10	13	10	46.6						
CC(C)C(=O)c1c(O)c(C(C2=C(O)C(C)(C)C(=O)C(C)(C)C2=O)C(C)C)c(O)c2c1OC1=C(C(=O)C(C)(C)C(=O)C1(C)C)C2C(C)C (centres unmarked) [Compound 3, Myrtucommulone-C]							35.4 ± 1.15	highest activity					
CC(C)C(=O)c1c(O)cc(O)c2c1OC1=C(C(=O)C(C)(C)C(=O)C1(C)C)C2C(C)C (centres unmarked) [Compound 4, Myrtucommulone-B]							40 ± 1	strong inhibition					
CC[C@H](CC[C@@H](C)[C@H]1CC[C@H]2[C@@H]3CC=C4C[C@@H](O)CC[C@]4(C)[C@H]3CC[C@]12C)C(C)C [Compound 7, β-sitosterol]	18	12			16				significant activity	15	significant activity		
CC(=O)c1c(O)c(C)c(O)c2c1OC1=CC(=O)C(C(C)=O)C(=O)C12C (centres unmarked) [Compound 9, usnic acid]	17	16		11	17	15				15			
C[C@H]1[C@H](C)CC[C@]2(C(=O)O)CC[C@]3(C)C(=CC[C@@H]4[C@@]5(C)C[C@@H](O)[C@H](O)C(C)(C)[C@@H]5CC[C@]43C)[C@H]12 [Compound 11, corosolic acid]	17	15			17	15			significant activity		significant activity		
CC1(C)CC[C@]2(C(=O)O)CC[C@]3(C)C(=CC[C@@H]4[C@@]5(C)C[C@@H](O)[C@H](O)[C@@](C)(CO)[C@@H]5CC[C@]43C)[C@@H]2C1 [Compound 12, arjunolic acid]	16	15		9	12	13			significant activity	15	significant activity		
CC1(C)CC[C@]2(CO)CC[C@]3(C)C(=CC[C@@H]4[C@@]5(C)CC[C@H](O)C(C)(C)[C@@H]5CC[C@]43C)[C@@H]2C1 [Compound 13, erythrodiol]	19	17		16	12				significant activity	11	significant activity		
CC1(C)CC[C@]2(C(=O)O)CC[C@]3(C)C(=CC[C@@H]4[C@@]5(C)CC[C@H](O)C(C)(C)[C@@H]5CC[C@]43C)[C@@H]2C1 [Compound 14, oleanolic acid]	16	15			16	10			significant activity		significant activity		
C=C(C)[C@@H]1CC[C@]2(CO)CC[C@]3(C)[C@H](CC[C@@H]4[C@@]5(C)CC[C@H](O)C(C)(C)[C@@H]5CC[C@]43C)[C@@H]12 [Compound 15, betulin]	16				18	15			significant activity		significant activity		
C[C@@H](O)[C@H]1C(=O)N2C(C(=O)O)=C(SCCN=CN)C[C@H]12 [Imipenem, reference compound]	25	33		30	24	27				33			
CC(C)C(=O)c1c(O)c([C@H](C2=C(O)C(C)(C)C(=O)C(C)(C)C2=O)C(C)C)c(O)c([C@H](C2=C(O)C(C)(C)C(=O)C(C)(C)C2=O)C(C)C)c1O [Myrtucommulone-A]												powerful antioxidant properties	significant antibacterial activity
Cc1c(O)c(C(=O)C(C)C)c(O)c(C(C2=C(O)C(C)(C)C(=O)C(C)(C)C2=O)C(C)C)c1O (centres unmarked) [semimyrtucommulone]												powerful antioxidant properties	less active
Myrtucommulone-D [Compound 1]	15	15	significant antibacterial activity			12	84.3 ± 3			24			
